In article PMC9135895, “The effects of two gold-N-heterocyclic carbene (NHC) complexes in ovarian cancer cells: a redox proteomic study” (Cancer Chemotherapy and Pharmacology, 2022):

Tests used:
[1] = biological target: T1, Glyceraldehyde-3-phosphate dehydrogenase (GAPDH) (Homo sapiens, UniProt P04406); assay: GAPDH activity ([…] nm) in A2780 crude cell extract after […] min pre-incubation; assay type: biochemical
T1 construct: endogenous GAPDH in A2780 cell extract

[2] = biological target: T1, Glyceraldehyde-3-phosphate dehydrogenase (GAPDH); assay: GAPDH activity ([…] nm) in A2780 crude cell extract after […] min pre-incubation; no adduct seen by ESI-MS with rabbit GAPDH; assay type: biochemical

T1 sequence (P04406 2-335): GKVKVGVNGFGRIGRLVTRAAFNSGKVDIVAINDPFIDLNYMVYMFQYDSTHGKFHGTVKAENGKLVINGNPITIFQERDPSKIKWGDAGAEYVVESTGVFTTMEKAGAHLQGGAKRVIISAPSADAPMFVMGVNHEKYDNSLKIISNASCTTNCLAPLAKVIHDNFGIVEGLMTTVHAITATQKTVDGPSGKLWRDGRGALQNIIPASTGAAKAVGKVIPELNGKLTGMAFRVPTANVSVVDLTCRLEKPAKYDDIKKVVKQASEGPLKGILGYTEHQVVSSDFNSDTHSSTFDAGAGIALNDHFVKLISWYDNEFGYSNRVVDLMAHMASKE

Row | Compound | EC50 [1] [nM] | EC50 [2] [µM]
1 | CCCCn1cc[n+](C)[c]1[Au-][Cl] [compound 1, chlorido (1-butyl-3-methyl-imidazole-2-ylidene) gold(I)] | 2860 ± 300 | –
2 | CCCCn1cc[n+](C)[c]1[AuH][c]1n(CCCC)cc[n+]1C [compound 2, bis(1-butyl-3-methyl-imidazole-2-ylidene) gold(I)] | – | 7.13 ± 0.1
